≈ marks a conversion by molar mass, not a printed value. Square brackets hold non-standard residues; d marks the D form. Peptide text beside a SMILES is read from it. * marks the point of attachment. Heptadecanoyl = CCCCCCCCCCCCCCCCC(=O)*; 2Nal = N[C@@H](Cc1ccc2ccccc2c1)C(=O)O; Cha = N[C@@H](CC1CCCCC1)C(=O)O; Undecanoyl = CCCCCCCCCCC(=O)*; Nonanoyl = CCCCCCCCC(=O)*
Experiments:
Enterococcus faecium = assay: Antibacterial activity against Vancomycin resistant Enterococcus faecium ATCC 700221 assessed as inhibition of bacterial growth incubated for 16 to 20 hrs by broth micro-dilution method; type: functional; details: time 16-20 hrs
Staphylococcus aureus [1] = assay: Antibacterial activity against methicillin resistant Staphylococcus aureus ATCC 33591 assessed as inhibition of bacterial growth incubated for 16 to 20 hrs by broth micro-dilution method; type: functional; details: time 16-20 hrs
[2] = Hemolytic activity in human RBC; type: toxicity, cell-based, Erythrocyte; details: red blood cells
Staphylococcus aureus [3] = assay: Antibacterial activity against Staphylococcus aureus ATCC 29213 assessed as bacterial growth inhibition measured after 18 hrs by CLSI protocol based two-fold serial microdilution method; type: functional
Escherichia coli [4] = assay: Antibacterial activity against Escherichia coli ATCC 25922 assessed as reduction in bacterial growth; type: functional
Escherichia coli [5] = assay: Antibacterial activity against Escherichia coli ATCC 25922 assessed as reduction in bacterial growth incubated for 18 to 20 hrs by Mueller Hinton broth dilution method; type: functional; details: time 18-20 hrs
[6] = system: Mycolicibacterium smegmatis; assay: Antimycobacterial activity against Mycobacterium smegmatis mc2 155 assessed as reduction in bacterial cell growth incubated for 24 hrs by resazurin dye based broth microdilution method; type: functional
Zymomonas mobilis [7] = assay: Antibacterial activity against Zymomonas mobilis ATCC 10988 assessed as reduction in bacterial growth incubated for 24 hrs by broth micro-dilution method; type: functional
Bacillus subtilis [8] = assay: Antimicrobial activity against Bacillus subtilis assessed as microbial growth inhibition incubated for 24 hrs by broth micro-dilution method; type: functional
[9] = Hemolytic activity against human Red blood cells assessed as cell lysis; type: toxicity, cell-based, Erythrocyte
Escherichia coli [10] = assay: Antibacterial acitivity against Escherichia coli DH5a assessed as bacterial growth inhibition incubated for 24 hrs by broth micro-dilution method; type: functional
Escherichia coli [11] = assay: Antibacterial activity against Escherichia coli ATCC 25922 assessed as reduction in bacterial growth incubated for 48 hrs by Mueller-Hinton broth based microdilution method; type: functional
Staphylococcus aureus [12] = assay: Antibacterial activity against Staphylococcus aureus ATCC 25923 assessed as reduction in bacterial growth incubated for 48 hrs by Mueller-Hinton broth based microdilution method; type: functional
Bacillus subtilis [13] = assay: Antibacterial activity against Bacillus subtilis assessed as bacterial growth inhibition; type: functional
Pseudomonas aeruginosa = assay: Antibacterial activity against Pseudomonas aeruginosa PAO1 assessed as bacterial growth inhibition; type: functional
Zymomonas mobilis [14] = assay: Antibacterial activity against Zymomonas mobilis ATCC 10988 assessed as bacterial growth inhibition; type: functional
[15] = system: Mycolicibacterium smegmatis; assay: Antibacterial activity against Mycobacterium smegmatis mc2 155 assessed as bacterial growth inhibition; type: functional
[16] = Hemolytic activity in human erythrocytes measured after 1 hrs by microplate reader analysis; type: toxicity, cell-based, Erythrocyte
Escherichia coli [17] = assay: Antibacterial activity against Escherichia coli DH5a assessed as bacterial growth inhibition; type: functional

| SMILES | MIC (Staphylococcus aureus [3]) | MIC (Escherichia coli [4]) | MIC (Bacillus subtilis [13]) | MIC (Pseudomonas aeruginosa) | MIC (Zymomonas mobilis [14]) | MIC [15] | HC50 at 1 h [16] | MIC (Escherichia coli [17]) | further results |
| --- | --- | --- | --- | --- | --- | --- | --- | --- | --- |
| CC[C@@H](C)[C@@H](NC(=O)[C@H](CCCNC(=N)N)NC(=O)[C@H](CCCCN)NC(=O)[C@H](CC(C)C)NC(=O)[C@H](CC1CCCCC1)NC(=O)CN)C(=O)N[C@@H](CCCCN)C(=O)N[C@H](C(=O)N[C@@H](CC(C)C)C(=O)N[C@@H](CC1CCCCC1)C(N)=O)[C@@H](C)O | – | – | – | – | – | – | – | – | MIC (Enterococcus faecium): 56.8 µM (≈ 70.1 µg/mL); MIC (Staphylococcus aureus [1]): 56.8 µM (≈ 70.1 µg/mL) |
| CC[C@H](C)[C@H](NC(=O)[C@H](Cc1ccccc1)NC(=O)[C@H](CCCCN)NC(=O)[C@H](CC(C)C)NC(=O)[C@H](CC(C)C)NC(=O)CN)C(=O)N[C@@H](CCCCN)C(=O)N[C@H](C(=O)N[C@@H](CC(C)C)C(=O)N[C@@H](CC(C)C)C(N)=O)[C@@H](C)O (H-GLLKFIKTLL-NH2) | 1.8 µM (≈ 2.06 µg/mL) | 1.8 µM (≈ 2.06 µg/mL) | – | – | – | – | – | – | HC50 [2]: 67.3 µM |
| CC[C@H](C)[C@H](NC(=O)[C@H](CCCCN)NC(=O)[C@H](CC(C)C)NC(=O)[C@H](CC(C)C)NC(=O)CN)C(=O)N[C@H](C(=O)N[C@@H](CCCCN)C(=O)N[C@H](C(=O)N[C@@H](CC(C)C)C(=O)N[C@@H](CC(C)C)C(N)=O)[C@@H](C)O)[C@@H](C)CC (H-GLLKIIKTLL-NH2) | 1.8 µM (≈ 2 µg/mL) | 1.8 µM (≈ 2 µg/mL) | – | – | – | – | – | – | HC50 [2]: 26.1 µM |
| CC(C)C[C@H](NC(=O)CN)C(=O)N[C@@H](CC(C)C)C(=O)N[C@@H](CCCCN)C(=O)N[C@@H](CCCCN)C(=O)N[C@@H](Cc1ccc2ccccc2c1)C(=O)N[C@@H](CCCCN)C(=O)N[C@@H](CCCCN)C(=O)N[C@@H](CC(C)C)C(=O)N[C@@H](CC1CCCCC1)C(N)=O (H-GLLKK[2Nal]KKL[Cha]-NH2) | – | – | – | – | – | – | – | – | MIC (Enterococcus faecium): 3.2 µM (≈ 4.09 µg/mL); MIC (Escherichia coli [5]): 16 µM (≈ 20.4 µg/mL); MIC (Staphylococcus aureus [1]): 9.5 µM (≈ 12.1 µg/mL) |
| CC[C@H](C)[C@H](NC(=O)[C@H](CC(C)C)NC(=O)[C@H](CCCCN)NC(=O)[C@H](CC(C)C)NC(=O)[C@H](CC(C)C)NC(=O)CN)C(=O)N[C@@H](CCCCN)C(=O)N[C@H](C(=O)N[C@@H](CC(C)C)C(=O)N[C@@H](CC(C)C)C(N)=O)[C@@H](C)O (H-GLLKLIKTLL-NH2) | 1.8 µM (≈ 2 µg/mL) | 1.8 µM (≈ 2 µg/mL) | – | – | – | – | – | – | HC50 [2]: 11.7 µM |
| CC[C@H](C)[C@H](NC(=O)[C@H](CC(N)=O)NC(=O)[C@H](CCCCN)NC(=O)[C@H](CC(C)C)NC(=O)[C@H](CC(C)C)NC(=O)CN)C(=O)N[C@@H](CCCCN)C(=O)N[C@H](C(=O)N[C@@H](CC(C)C)C(=O)N[C@@H](CC(C)C)C(N)=O)[C@@H](C)O (H-GLLKNIKTLL-NH2) | 1.7 µM (≈ 1.89 µg/mL) | 1.7 µM (≈ 1.89 µg/mL) | – | – | – | – | – | – | – |
| CC[C@H](C)[C@H](NC(=O)[C@@H](NC(=O)[C@H](CCCCN)NC(=O)[C@H](CC(C)C)NC(=O)[C@H](CC(C)C)NC(=O)CN)C(C)C)C(=O)N[C@@H](CCCCN)C(=O)N[C@H](C(=O)N[C@@H](CC(C)C)C(=O)N[C@@H](CC(C)C)C(N)=O)[C@@H](C)O (H-GLLKVIKTLL-NH2) | 2.7 µM (≈ 2.96 µg/mL) | 2.7 µM (≈ 2.96 µg/mL) | – | – | – | – | – | – | HC50 [2]: 54.7 µM |
| CC[C@H](C)[C@H](NC(=O)[C@H](Cc1ccccc1)NC(=O)[C@H](CCCCN)NC(=O)[C@H](CC(C)C)NC(=O)[C@H](CC(C)C)NC(=O)[C@@H](N)CCCCN)C(=O)N[C@@H](CCCCN)C(=O)N[C@@H](CCCCN)C(=O)N[C@@H](CC(C)C)C(=O)N[C@@H](CC(C)C)C(N)=O (H-KLLKFIKKLL-NH2) | – | – | – | – | – | – | – | – | MIC [6]: 13.3 µM (≈ 16.5 µg/mL); MIC (Zymomonas mobilis [7]): 8.9 µM (≈ 11.1 µg/mL); MIC (Bacillus subtilis [8]): 35.6 µM (≈ 44.2 µg/mL); HC50 [9]: > 403 µM; MIC (Escherichia coli [10]): 322 µM (≈ 400 µg/mL) |
| CC[C@H](C)[C@H](NC(=O)[C@H](Cc1ccccc1)NC(=O)[C@H](CCCCN)NC(=O)[C@H](CC(C)C)NC(=O)[C@H](CC(C)C)NC(=O)[C@@H](N)CCCNC(=N)N)C(=O)N[C@@H](CCCCN)C(=O)N[C@@H](CCCCN)C(=O)N[C@@H](CC(C)C)C(=O)N[C@@H](CC(C)C)C(N)=O (H-RLLKFIKKLL-NH2) | – | – | – | – | – | – | – | – | MIC [6]: 15.8 µM (≈ 20.1 µg/mL); MIC (Zymomonas mobilis [7]): 7.9 µM (≈ 10 µg/mL); MIC (Bacillus subtilis [8]): 31.5 µM (≈ 40 µg/mL); HC50 [9]: > 394 µM; MIC (Escherichia coli [10]): 315 µM (≈ 400 µg/mL) |
| CCCCCCCCCCCCCCCCC(=O)NCC(=O)N[C@@H](CC(C)C)C(=O)N[C@@H](CC(C)C)C(=O)N[C@@H](CCCCN)C(=O)N[C@@H](CCCNC(=N)N)C(=O)N[C@H](C(=O)N[C@@H](CCCCN)C(=O)N[C@H](C(=O)N[C@@H](CC(C)C)C(=O)N[C@@H](CC(C)C)C(N)=O)[C@@H](C)O)[C@@H](C)CC (Heptadecanoyl-GLLKRIKTLL-NH2) | – | – | – | – | – | – | – | – | MIC (Escherichia coli [11]): 2.34 µM (≈ 3.29 µg/mL); MIC (Staphylococcus aureus [12]): 4.67 µM (≈ 6.57 µg/mL) |
| CCCCCCCCC(=O)NCC(=O)N[C@@H](CC(C)C)C(=O)N[C@@H](CCCCN)C(=O)N[C@@H](CCCCN)C(=O)N[C@H](C(=O)N[C@H](C(=O)N[C@@H](CCCCN)C(=O)N[C@@H](CCCCN)C(=O)N[C@@H](CC(C)C)C(=O)N[C@@H](CC(C)C)C(N)=O)[C@@H](C)CC)[C@@H](C)CC (Nonanoyl-GLKKIIKKLL-NH2) | – | – | 3.83 µM (≈ 4.95 µg/mL) | 11.5 µM (≈ 14.8 µg/mL) | 11.5 µM (≈ 14.8 µg/mL) | 2.3 µM (≈ 2.97 µg/mL) | 61.9 µM | 76.6 µM (≈ 99 µg/mL) | – |
| CCCCCCCCC(=O)NCC(=O)N[C@@H](CC(C)C)C(=O)N[C@@H](CC(C)C)C(=O)N[C@@H](CCCCN)C(=O)N[C@H](C(=O)N[C@H](C(=O)N[C@@H](CCCCN)C(=O)N[C@@H](CCCCN)C(=O)N[C@@H](CC(C)C)C(=O)N[C@@H](CC(C)C)C(N)=O)[C@@H](C)CC)[C@@H](C)CC (Nonanoyl-GLLKIIKKLL-NH2) | – | – | 5.43 µM (≈ 6.94 µg/mL) | 23.3 µM (≈ 29.7 µg/mL) | 7.75 µM (≈ 9.9 µg/mL) | 15.5 µM (≈ 19.8 µg/mL) | > 155 µM | > 155 µM | – |
| CCCCCCCCCCC(=O)NCC(=O)N[C@@H](CC(C)C)C(=O)N[C@@H](CCCCN)C(=O)N[C@@H](CCCCN)C(=O)N[C@H](C(=O)N[C@H](C(=O)N[C@@H](CCCCN)C(=O)N[C@@H](CCCCN)C(=O)N[C@@H](CC(C)C)C(=O)N[C@@H](CC(C)C)C(N)=O)[C@@H](C)CC)[C@@H](C)CC (Undecanoyl-GLKKIIKKLL-NH2) | – | – | 5.83 µM (≈ 7.7 µg/mL) | 16.7 µM (≈ 22 µg/mL) | 12.5 µM (≈ 16.5 µg/mL) | 0.42 µM (≈ 0.555 µg/mL) | 62.9 µM | 25 µM (≈ 33 µg/mL) | – |
| CCCCCCCCCCC(=O)NCC(=O)N[C@@H](CC(C)C)C(=O)N[C@@H](CC(C)C)C(=O)N[C@@H](CCCCN)C(=O)N[C@H](C(=O)N[C@H](C(=O)N[C@@H](CCCCN)C(=O)N[C@@H](CCCCN)C(=O)N[C@@H](CC(C)C)C(=O)N[C@@H](CC(C)C)C(N)=O)[C@@H](C)CC)[C@@H](C)CC (Undecanoyl-GLLKIIKKLL-NH2) | – | – | 26 µM (≈ 34 µg/mL) | 34.7 µM (≈ 45.3 µg/mL) | 8.68 µM (≈ 11.3 µg/mL) | 6.08 µM (≈ 7.94 µg/mL) | 38.7 µM | > 174 µM | – |
| CCCCCCCCCCC(=O)NCC(=O)N[C@@H](CC(C)C)C(=O)N[C@@H](CC(C)C)C(=O)N[C@@H](CCCCN)C(=O)N[C@H](C(=O)N[C@H](C(=O)N[C@@H](CCCCN)C(=O)N[C@@H](CCCNC(=N)N)C(=O)N[C@@H](CC(C)C)C(=O)N[C@@H](CC(C)C)C(N)=O)[C@@H](C)CC)[C@@H](C)CC (Undecanoyl-GLLKIIKRLL-NH2) | – | – | 167 µM (≈ 222 µg/mL) | 33.3 µM (≈ 44.4 µg/mL) | 12.5 µM (≈ 16.7 µg/mL) | 33.3 µM (≈ 44.4 µg/mL) | 56.8 µM | > 167 µM | – |
| CCCCCCCCCCC(=O)NCC(=O)N[C@@H](CC(C)C)C(=O)N[C@@H](CC(C)C)C(=O)N[C@@H](CCCCN)C(=O)N[C@@H](CCCCN)C(=O)N[C@H](C(=O)N[C@@H](CCCCN)C(=O)N[C@@H](CCCNC(=N)N)C(=O)N[C@@H](CC(C)C)C(=O)N[C@@H](CC(C)C)C(N)=O)[C@@H](C)CC (Undecanoyl-GLLKKIKRLL-NH2) | – | – | 86.2 µM (≈ 116 µg/mL) | 2.58 µM (≈ 3.48 µg/mL) | 4.3 µM (≈ 5.8 µg/mL) | 86.2 µM (≈ 116 µg/mL) | 38 µM | 34.4 µM (≈ 46.3 µg/mL) | – |
